Laboratory results published in patent publication US11485728B2, “Small molecules for the treatment of autoimmune diseases and cancer” (Athos Therapeutics, Inc., priority 2020, dated 2022).

What was measured:
[1] = In-vitro half-life in rat liver microsomes; type: in vitro ADME; settings: Rat liver microsomes 0.5 mg/mL; 1 μg/mL drug; NRS; read-out: Metabolic Half-life
Experimental: In each of the species (human, rat, mouse) of liver matrix to be tested, a working concentration of 2 μg/mL was prepared of each test article from the 0.5 mg/mL DMSO stock solution by adding 3 μL of 0.5 mg/mL test article stock solution to 747 μL of the 1 mg/mL liver matrix. Incubation was performed at 37±2° C. with gentle, continuous mixing in shaking water bath in 2.0 mL-well capacity 96-Deepwell plates (96-DWP). Samples were retrieved in duplicate at the following time points: 0, 5, 10, 15, 30 and 60 minutes. The final mixture contained 1 μg/mL of drug and 0.5 mg/mL of liver matrix. First, 50 μL of test articles in liver matrix was added to the 96-DWP and pre-warmed the mixture in the 96-DWP for 2 minutes in the 37° C. water bath. The enzymatic reaction was started by the addition of 50 μL of the corresponding 2× NADPH regenerating system (NRS) cofactor solution to all sample wells and stopped by the addition of 300 μL of stop solution (acetonitrile containing 10 ng/mL Tolbutamide as an internal standard (I.Std.). The samples were agitated for 10 minutes and then centrifuged for 20 minutes at 4500 rpm. 25 μL of supernatant was diluted with 475 μL acetonitrile containing I. Std. into a new 96-DWPs for LC-MS/MS analysis.
Half-life calculations were generated and calculated by Graphpad Prism® software. The half-life of test compound was calculated based on the first-order reaction kinetics. The data was transformed to linear regression (y=log(y) where “y” axis represents the % compound remaining at any given time with respect to time 0 minutes; “x” axis represents time in minutes) in order to calculate the half-life.
A comparison of metabolic stability in time-course incubation experiments in varying species of liver can provide information of pharmacokinetic properties of drugs attributable to species-related differences in hepatic metabolism. The results of these experiments often assist in further applications such as assessing in vitro metabolite profiling and choosing relevant species for toxicology studies based on similarities relative to the metabolic stability to the human profile. For these experiments, the test compound was tested in parallel with a positive control, Dasatinab, in an enzymatic reaction solution of each species (human and rat) of liver microsomes containing a NADPH regenerating system (NRS). The final mixture contained 1 μg/mL of drug and 0.5 mg/mL of liver matrix. Incubations were performed at 37±2° C. with gentle, continuous mixing in shaking water bath in 96-Deep well plates. The stability of the test compound is monitored using fast, specific and sensitive LC/MS/MS analysis.

CYP2C8 = biological target: T1, CYP2C8 (Homo sapiens, UniProt P10632); assay: CYP-direct inhibition, CYP2C8; type: in vitro ADME
T1 construct: from tissue; host or cells: pooled human liver microsomes
T1 sequence (P10632 1-490): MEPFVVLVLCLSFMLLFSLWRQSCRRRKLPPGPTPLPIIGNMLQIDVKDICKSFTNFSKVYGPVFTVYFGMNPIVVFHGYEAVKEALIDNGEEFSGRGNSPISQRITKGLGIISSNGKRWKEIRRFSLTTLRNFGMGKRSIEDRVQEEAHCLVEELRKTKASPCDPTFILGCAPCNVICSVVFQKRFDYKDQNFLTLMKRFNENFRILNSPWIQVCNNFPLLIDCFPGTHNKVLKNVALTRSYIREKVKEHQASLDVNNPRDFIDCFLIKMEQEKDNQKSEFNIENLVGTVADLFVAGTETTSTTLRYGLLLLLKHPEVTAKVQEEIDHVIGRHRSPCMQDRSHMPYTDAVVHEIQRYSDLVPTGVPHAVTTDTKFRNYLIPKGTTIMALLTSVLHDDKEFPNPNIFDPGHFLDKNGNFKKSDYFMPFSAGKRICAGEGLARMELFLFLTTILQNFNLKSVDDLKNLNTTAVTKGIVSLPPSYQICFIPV
Experimental: Many drugs inhibit cytochrome P450 enzymes to cause clinically significant changes in the pharmacokinetics of other drugs. In vitro cytochrome P450 inhibition, can provide crucial information in evaluating potential clinical drug-drug interactions and is useful for focusing in vivo tests to areas of concern. The cytochrome P450 inhibition assay was developed by preparing a working cocktail solution consisting of six probe substrates 10 μM ethoxy-resorufin (CYP1A2), 100 μM rosiglitazone (CYP2C8), 50 μM diclofenac (CYP2C9), 300 μM S-mephenytoin (CYP2C19), 50 μM dextromethorphan (CYP2D6), and 20 μM midazolam (CYP3A4). A mixture solution consists of 140 uL of 0.286 mg/mL of pooled human liver microsome working solution and 20 uL working solutions of test articles, standard control inhibitors, or positive control placebo and 20 uL of substrate cocktail mixture working solution was prepared. The mixture solution was pre-warm in a gentle shaking bath at 37±2° C. for 5 minutes. The enzymatic reaction started by adding 20 uL of NRS working solution to the mixture solution and incubated for 10 minutes at 37±2° C. To stop the reaction, an addition of 400 μL cold stop solution (acetonitrile containing 50 ng/mL Tolbutamide as an internal standard (I.Std.) was added to the mixture solution. The final concentration of test article, inhibitors, substrates, and cofactors are noted in Table 0.1 below. Two individual samples were prepared for each test compound. The extracted samples were vortexed and then centrifuged at 4500 rpm for 7 minutes using Eppendorf Centrifuge 5910R. 200 uL of supernatant was diluting with 200 uL of 50% Methanol into 96-DW plate for LC/MS/MS analysis
Concentration-response plots are used to determine the effects of an inhibitor on an enzymatic reaction. A typical concentration-response plot provides fractional activity (Y axis) is plotted as a function of log inhibitor concentration (X axis). The data are fitted using a standard Sigmoidal dose-response equation which is also called a […] logistic equation. The concentration of compound that results in 50% inhibition of maximal activity is termed as the IC50 (inhibitor concentration yielding 50% inhibition). IC50 value is calculated using Prism GraphPad software, version 9. […].
Cytochrome P450 inhibition of a drug is a key factor in determining pharmacokinetic drug-drug interactions. The objective of this study was to evaluate the inhibition potential of G9a inhibitors on six (6) major human cytochrome P450 enzymes, including CYP1A2, CYP2C8, CYP2C9, CYP2C19, CYP2D6, and CYP3A4. Inhibition was determined by using a substrate cocktail and analyzing the rate of specific metabolites formation. The cytochrome P450 inhibition assay was developed using a cocktail consisting of six (6) probe substrates ethoxy-resorufin (CYP1A2), rosiglitazone (CYP2C8), diclofenac (CYP2C9), S-mephenytoin (CYP2C19), dextromethorphan (CYP2D6), and midazolam (CYP3A4). The cocktail was incubated in human liver microsome with NADPH regenerating system (NRS) in a shaking bath at 37±2° C. The formation of specific metabolites was monitored by LC/MS/MS. Test compound was added to the cocktail-liver microsome mixture at varying concentrations and its effect on cytochrome P450 activity was determined by analyzing the rate of specific metabolite formation. The percent inhibition was calculated and plotted with reference to the concentration, and the IC50 value for inhibition was derived by fitting the data with a using log(inhibitor) vs. normalized response with variable slope least squares fit by Graphpad Prism® software. […].

Compound	half-life at 1 μg/mL [1]	IC50 (CYP2C8)
COc1cc2c(NC3CCOCC3)nc(N3CCC(F)(F)CC3)nc2cc1OCCCN1CCCC1 [Compound 2, 2-(4,4-difluoropiperidin-1-yl)-6-methoxy-7-(3-(pyrrolidin-1-yl)propoxy)-N-(tetrahydro-2H-pyran-4-yl)quinazolin-4-amine]	0.828 h	20.4 µM
COc1cc2c(Nc3ccncc3)nc(-n3ccnc3)nc2cc1OCCCN1CCCC1 [Compound 130, 2-(1H-imidazol-1-yl)-6-methoxy-N-(pyridin-4-yl)-7-(3-(pyrrolidin-1-yl)propoxy)quinazolin-4-amine]	> 1 h	4.66 µM
COc1cc2c(NC3COC3)nc(N3CCC(F)(F)CC3)nc2cc1OCCCN1CCCC1 [Compound 11, 2-(4,4-difluoropiperidin-1-yl)-6-methoxy-N-(oxetan-3-yl)-7-(3-(pyrrolidin-1-yl)propoxy)quinazolin-4-amine]	> 1 h	16 µM
COc1cc2c(NC3CCOCC3)nc(N3CCOCC3)nc2cc1OCCCN1CCCC1 [Compound 195, 6-methoxy-2-morpholino-7-(3-(pyrrolidin-1-yl)propoxy)-N-(tetrahydro-2H-pyran-4-yl)quinazolin-4-amine]	> 1 h	> 100 µM
COc1cc2c(NC3CCNCC3)nc(N3CCC(F)(F)CC3)nc2cc1OCCCN1CCCC1 [Compound 8, 2-(4,4-difluoropiperidin-1-yl)-6-methoxy-N-(piperidin-4-yl)-7-(3-(pyrrolidin-1-yl)propoxy)quinazolin-4-amine]	> 1 h	> 100 µM
COc1cc2c(NC3CCN(C(C)C)CC3)nc(-n3ccnc3)nc2cc1OCCCN1CCCC1 [Compound 156, 2-(1H-imidazol-1-yl)-N-(1-isopropylpiperidin-4-yl)-6-methoxy-7-(3-(pyrrolidin-1-yl)propoxy)quinazolin-4-amine]	> 1 h	> 100 µM
COc1cc2c(NC3CCOCC3)nc(N3CCS(=O)(=O)CC3)nc2cc1OCCCN1CCCC1 [Compound 196, 4-(6-methoxy-7-(3-(pyrrolidin-1-yl)propoxy)-4-((tetrahydro-2H-pyran-4-yl)amino)quinazolin-2-yl)thiomorpholine 1,1-dioxide]	> 1 h	> 100 µM
COc1cc2c(NC3CCS(=O)(=O)CC3)nc(N3CCC(F)(F)CC3)nc2cc1C#CCN1CCCC1 [Compound 248, 4-((2-(4,4-difluoropiperidin-1-yl)-6-methoxy-7-(3-(pyrrolidin-1-yl)prop-1-yn-1-yl)quinazolin-4-yl)amino)tetrahydro-2H-thiopyran 1,1-dioxide]	0.282 h	43.1 µM
COc1cc2c(NC3CCN(C(C)C)CC3)nc(N3CCC(F)(F)CC3)nc2cc1OCCCN1CCCC1 [Compound 400, 2-(4,4-difluoropiperidin-1-yl)-N-(1-isopropylpiperidin-4-yl)-6-methoxy-7-(3-(pyrrolidin-1-yl)propoxy)quinazolin-4-amine, reference compound]	> 1 h	> 100 µM

The next lines start with the values.

half-life at 1 μg/mL [1]	IC50 (CYP2C8)	Compound
> 1 h	> 100 µM	COc1cc2c(NC3CCS(=O)(=O)CC3)nc(N3CCCN(C)CC3)nc2cc1OCCCN1CCCC1 [Compound 110, 4-((6-methoxy-2-(4-methyl-1,4-diazepan-1-yl)-7-(3-(pyrrolidin-1-yl)propoxy)quinazolin-4-yl)amino)tetrahydro-2H-thiopyran 1,1-dioxide]
> 1 h	> 100 µM	COc1cc2c(NCC(N)=O)nc(N3CCC(F)(F)CC3)nc2cc1OCCCN1CCCC1 [Compound 9, 2-((2-(4,4-difluoropiperidin-1-yl)-6-methoxy-7-(3-(pyrrolidin-1-yl)propoxy)quinazolin-4-yl)amino)acetamide]
> 1 h	> 100 µM	COc1cc2c(NC3CCN(C(C)C)CC3)nc(-n3cccn3)nc2cc1OCCCN1CCCC1 [Compound 157, N-(1-isopropylpiperidin-4-yl)-6-methoxy-2-(1H-pyrazol-1-yl)-7-(3-(pyrrolidin-1-yl)propoxy)quinazolin-4-amine]
> 1 h	27.4 µM	COCCNc1nc(N2CCC(F)(F)CC2)nc2cc(OCCCN3CCCC3)c(OC)cc12 [Compound 4, 2-(4,4-difluoropiperidin-1-yl)-6-methoxy-N-(2-methoxyethyl)-7-(3-(pyrrolidin-1-yl)propoxy)quinazolin-4-amine]
> 1 h	60.6 µM	COc1cc2c(NC3CCS(=O)(=O)CC3)nc(N3CCOCC3)nc2cc1OCCCN1CCCC1 [Compound 102, 4-((6-methoxy-2-morpholino-7-(3-(pyrrolidin-1-yl)propoxy)quinazolin-4-yl)amino)tetrahydro-2H-thiopyran 1,1-dioxide]
> 1 h	> 100 µM	COc1cc2c(NC3CCS(=O)(=O)CC3)nc(N3CCS(=O)(=O)CC3)nc2cc1OCCCN1CCCC1 [Compound 103, 4-(4-((1,1-dioxidotetrahydro-2H-thiopyran-4-yl)amino)-6-methoxy-7-(3-(pyrrolidin-1-yl)propoxy)quinazolin-2-yl)thiomorpholine 1,1-dioxide]
0.55 h	> 100 µM	COc1cc2c(N[C@H]3CCCNC3)nc(N3CCCC3)nc2cc1OCCCN1CCCC1 [Compound 158, (S)-6-methoxy-N-(piperidin-3-yl)-2-(pyrrolidin-1-yl)-7-(3-(pyrrolidin-1-yl)propoxy)quinazolin-4-amine]
